Data reported in publication PMC9259562 (Scientific Reports, 2022).
Square brackets hold non-standard residues; d marks the D form. Peptide text beside a SMILES is read from it. βAla = NCCC(=O)O

Assays:
[1] = tested on: Stx2a cytotoxicity in Vero cells; conditions: 72 h
[2] = target: Stx2a A-subunit (Escherichia phage 933W, UniProt P09385); assay: biochemical; format: binding, Escherichia coli
Chain of Stx2a A-subunit (P09385 23-319 limits assumed): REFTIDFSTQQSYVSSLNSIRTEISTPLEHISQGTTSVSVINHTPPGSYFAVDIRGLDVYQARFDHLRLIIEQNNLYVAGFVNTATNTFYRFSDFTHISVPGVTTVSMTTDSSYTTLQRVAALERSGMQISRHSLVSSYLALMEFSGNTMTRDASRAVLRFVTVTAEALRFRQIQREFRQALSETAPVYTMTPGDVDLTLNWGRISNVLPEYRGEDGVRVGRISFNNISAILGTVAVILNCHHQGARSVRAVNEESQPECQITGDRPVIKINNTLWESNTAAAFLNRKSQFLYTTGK

| SMILES | IC50 [1] [µM] | IC50 [2] [µM] |
| --- | --- | --- |
| C[C@H](NC(=O)[C@H](CCCNC(=N)N)NC(=O)[C@H](CCCNC(=N)N)NC(=O)[C@H](CCCNC(=N)N)NC(=O)[C@@H](N)CCCNC(=N)N)C(N)=O [R4A-mono] (H-RRRRA-NH2) | 56.8 ± 2.8 | – |
| C[C@H](NC(=O)[C@H](CCCNC(=N)N)NC(=O)[C@H](CCCNC(=N)N)NC(=O)[C@@H](N)CCCNC(=N)N)C(N)=O [R3A-mono] (H-RRRA-NH2) | 52.1 ± 3.5 | 89.6 |
| CSCC[C@H](NC(=O)[C@H](C)NC(=O)[C@@H](N)CCSC)C(=O)N[C@@H](CCSC)C(=O)NCCC(=O)N[C@@H](CCCNC(=N)N)C(=O)N[C@@H](CCCNC(=N)N)C(=O)N[C@@H](CCCNC(=N)N)C(=O)N[C@@H](CCCNC(=N)N)C(=O)N[C@@H](C)C(N)=O [MMβA-mono, reference compound] (H-MAMM[βAla]RRRRA-NH2) | 21 ± 4 | – |
| N=C(N)NCCC[C@H](NC(=O)[C@H](CCCNC(=N)N)NC(=O)[C@H](CCCNC(=N)N)NC(=O)[C@@H](N)CCCNC(=N)N)C(N)=O [R4-mono] (H-RRRR-NH2) | 55.4 ± 8.9 | 0.387 |
| N=C(N)NCCC[C@H](NC(=O)[C@H](CCCNC(=N)N)NC(=O)[C@@H](N)CCCNC(=N)N)C(N)=O [R3-mono] (H-Arg-Arg-Arg-NH2) | 78.7 ± 4.7 | 3.68 |
| C[C@H](NC(=O)[C@H](CCCNC(=N)N)NC(=O)[C@@H](N)CCCNC(=N)N)C(N)=O [R2A-mono] (H-Arg-Arg-Ala-NH2) | 66 ± 17 | 132 |
| C[C@H](N)C(=O)N[C@@H](CCCNC(=N)N)C(=O)N[C@@H](CCCNC(=N)N)C(=O)N[C@@H](CCCNC(=N)N)C(=O)N[C@@H](CCCNC(=N)N)C(=O)N[C@@H](C)C(N)=O [AR4A-mono] (H-ARRRRA-NH2) | 51.6 ± 2.2 | 2.27 |
